From US8846711B2, “Heterocyclic acrylamides and their use as pharmaceuticals” (Fab Pharma S.A.S., priority 2009, dated 2014)
≈ marks a conversion by molar mass, not a printed value.

Assays:
[1] = target: recombinant S. aureus FabI enzyme (Staphylococcus aureus (strain MRSA252), UniProt Q6GI75); assay: FabI inhibition, fluorescence based assay; format: biochemical; details: in vitro
Experimental: Compound inhibitory activity of FabI enzyme is measured in vitro by the […] determination using a fluorescence based assay.
The protein FabI from S. aureus is prepared and purified using standard methods for recombinant protein expression after cloning of the gene in a prokaryotic expression vector.
The biochemical activity of the FabI enzyme is assessed using the following method.
The assay buffer “AB” contained 50 mM ADA (N-(2-acetamido)iminodiacetic acid monosodium salt) pH 6.5, 1 mM dithiothreitol, 0.006% Triton-X100 and 50 mM NaCl.
The following components are added in a white polystyrene Costar plate (Ref 3912) up to a final volume of 55.5 μL: 1.5 μL DMSO or inhibitor dissolved in DMSO and 54 μL of a FabI/NADPH/NADP+ mixture in AB. After 60 min of pre-incubation at room temperature, the reaction is started by addition of 5 μL of trans-2-octenoyl N-acetylcysteamine thioester (t-o-NAC) to a final volume of 60.5 μL. This reaction mixture is then composed of 2 nM FabI, 40 μM NADPH (Sigma, N7505), 10 μM NADP+ (Sigma, N5755), 100 μM t-O-NAC and compound at defined concentration. Fluorescence intensity of NADPH (λex=360 nm, […]) is measured immediately after t-O-NAC addition (T0), and approximately 50 min later (T50) by a Fluostar Optima (BMG) so as to achieve ±30% of NADPH conversion. Enzyme activity is calculated by first subtracting TO signal to T50 and then subtracting background signal (FabI=0). Percentages of inhibition are calculated against untreated samples (Inhibitor=0) and IC50 are fitted to a classical Langmuir equilibrium model using XLFIT (IDBS).

S. aureus CIP 54.146 = assay: MIC determination using broth microdilution method; format: cell-based; details: Staphylococcus aureus, CIP54 / MSSA, read-out: MIC (μg/ml) S. aureus CIP 54.146
Experimental: The compounds of the invention are useful antibacterial agents having a selective spectrum of activity in vitro against bacterial strains relying on FabI and related targets. […] The activity is presented as Minimum Inhibitory Concentration (MIC) expressed in μg/ml and was determined using broth microdilution or Agar dilution methods.
(§1) Antibacterial activity was determined on strains from Mutabilis internal collection.
This protocol is compliant with Clinical Laboratory Standards Institute (CLSI) methodology as described in M7-A7 document of the CLSI. The compound to be tested is diluted according to a geometric series of reason 2 in pure DMSO. Dilutions are transferred in sterile polystyrene microplates, followed by mid-log phase bacteria in cation-adjusted Muller-Hinton broth (ca-MHB, Fluka, Reference 90922) with a final inoculum of 5×10^5 cfu/ml. Microplates are incubated overnight at 35° C. MIC is defined as the lowest concentration of antimicrobial agent that completely prevents visible bacterial growth. All manipulations, but compound handling (in pure DMSO), are performed under sterile conditions. The final concentration of DMSO in the plates is 2%.

[2] = tested on: Staphylococcus aureus NRS383; assay: MIC determination using agar dilution method; format: cell-based; details: MRSA / NRS 383, read-out: MIC (μg/ml) NRS383
Experimental: as §1
(§2) This protocol is compliant with Clinical Laboratory Standards Institute (CLSI) methodology as described in M7-A7 document of the CLSI. The compound to be tested is incorporated into Mueller-Hinton Agar medium (Fluka, Reference 70191) at one concentration per plate according to a geometric series of reason 2. Plates are inoculated with mid-log phase bacteria (inoculum=1×10^4 cfu/spot) and incubated overnight at 35° C. […] All manipulations, but compound handling (in pure DMSO), are performed under sterile conditions. The final DMSO concentration of DMSO in the plates is 2%. Vancomycin is used as reference.

[3] = tested on: Staphylococcus aureus NRS483; assay: MIC determination using agar dilution method; format: cell-based; details: MRSA / NRS 483, read-out: MIC (μg/ml) NRS483
Experimental: as §1, §2

[4] = tested on: Staphylococcus aureus NRS121; assay: MIC determination using agar dilution method; format: cell-based; details: MRSA / NRS 121, read-out: MIC (μg/ml) NRS121
Experimental: as §1, §2

[5] = tested on: Staphylococcus aureus NRS128; assay: MIC determination using agar dilution method; format: cell-based; details: MSSA / NRS 128, read-out: MIC (μg/ml) NRS128
Experimental: as §1, §2

[6] = tested on: Staphylococcus aureus NRS269; assay: MIC determination using agar dilution method; format: cell-based; details: MRSA / NRS 269, read-out: MIC (μg/ml) NRS269
Experimental: as §1, §2

[7] = tested on: Staphylococcus aureus NRS120; assay: MIC determination using agar dilution method; format: cell-based; details: MRSA / NRS 120, read-out: MIC (μg/ml) NRS120
Experimental: as §1, §2

[8] = tested on: Staphylococcus aureus NRS119; assay: MIC determination using agar dilution method; format: cell-based; details: MRSA / NRS 119, read-out: MIC (μg/ml) NRS119
Experimental: as §1, §2

[9] = tested on: Staphylococcus aureus NRS127; assay: MIC determination using agar dilution method; format: cell-based; details: MRSA / NRS 127, read-out: MIC (μg/ml) NRS127
Experimental: as §1, §2

[10] = tested on: Staphylococcus aureus NRS22; assay: MIC determination using agar dilution method; format: cell-based; details: MRSA / NRS 22, read-out: MIC (μg/ml) NRS22
Experimental: as §1, §2

[11] = tested on: Staphylococcus aureus NRS130; assay: MIC determination using agar dilution method; format: cell-based; details: MSSA / NRS 130, read-out: MIC (μg/ml) NRS130
Experimental: as §1, §2

[12] = tested on: Staphylococcus aureus NRS123; assay: MIC determination using agar dilution method; format: cell-based; details: MRSA / NRS 123, read-out: MIC (μg/ml) NRS123
Experimental: as §1, §2

[13] = tested on: Staphylococcus aureus NRS385; assay: MIC determination using agar dilution method; format: cell-based; details: MRSA / NRS 385, read-out: MIC (μg/ml) NRS385
Experimental: as §1, §2

[14] = tested on: Staphylococcus aureus NRS382; assay: MIC determination using agar dilution method; format: cell-based; details: MRSA / NRS 382, read-out: MIC (μg/ml) NRS382
Experimental: as §1, §2

[15] = tested on: Staphylococcus aureus NRS386; assay: MIC determination using agar dilution method; format: cell-based; details: MRSA / NRS 386, read-out: MIC (μg/ml) NRS386
Experimental: as §1, §2

[16] = tested on: Staphylococcus aureus NRS482; assay: MIC determination using agar dilution method; format: cell-based; details: MRSA / NRS 482, read-out: MIC (μg/ml) NRS482
Experimental: as §1, §2

[17] = tested on: Staphylococcus aureus NRS262; assay: MIC determination using agar dilution method; format: cell-based; details: MSSA / NRS 262, read-out: MIC (μg/ml) NRS262
Experimental: as §1, §2

[18] = tested on: Staphylococcus aureus NRS384; assay: MIC determination using agar dilution method; format: cell-based; details: MRSA / NRS 384, read-out: MIC (μg/ml) NRS384
Experimental: as §1, §2

[19] = tested on: Staphylococcus aureus NRS484; assay: MIC determination using agar dilution method; format: cell-based; details: MRSA / NRS 484, read-out: MIC (μg/ml) NRS484
Experimental: as §1, §2

[20] = tested on: Staphylococcus aureus NRS192; assay: MIC determination using agar dilution method; format: cell-based; details: MRSA / NRS 192, read-out: MIC (μg/ml) NRS192
Experimental: as §1, §2

[21] = tested on: Staphylococcus aureus NRS100; assay: MIC determination using agar dilution method; format: cell-based; details: MRSA / NRS 100, read-out: MIC (μg/ml) NRS100
Experimental: as §1, §2

[22] = tested on: Staphylococcus aureus strain ATCC 29213; assay: In vivo antibacterial activity, thigh infection model in neutropenic Swiss mice; details: 50 mg/kg subcutaneously, 1.5 h after infection, FIG. 2
E. coli FabI = E. coli FabI (Escherichia coli (strain K12), UniProt P0AEK4); details: literature (Ward et al.); cited from earlier work
Chain of E. coli FabI (P0AEK4 whole entry): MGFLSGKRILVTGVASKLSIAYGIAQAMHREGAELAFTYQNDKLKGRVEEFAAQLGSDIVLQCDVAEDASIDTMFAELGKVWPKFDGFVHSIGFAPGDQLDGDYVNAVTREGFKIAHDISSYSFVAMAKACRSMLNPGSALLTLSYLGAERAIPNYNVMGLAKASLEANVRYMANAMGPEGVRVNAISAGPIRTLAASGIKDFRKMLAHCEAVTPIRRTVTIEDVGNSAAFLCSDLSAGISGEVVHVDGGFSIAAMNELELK

Row | SMILES | IC50 [1] [nM] | MIC (S. aureus CIP 54.146) [µg/mL] | MIC [2] [µg/mL] | MIC [3] [µg/mL] | MIC [4] [µg/mL] | MIC [5] [µg/mL] | MIC [6] [µg/mL] | MIC [7] [µg/mL] | MIC [8] [µg/mL] | MIC [9] [µg/mL] | MIC [10] [µg/mL] | MIC [11] [µg/mL] | MIC [12] [µg/mL] | MIC [13] [µg/mL] | MIC [14] [µg/mL] | MIC [15] [µg/mL] | MIC [16] [µg/mL] | MIC [17] [µg/mL] | MIC [18] [µg/mL] | MIC [19] [µg/mL] | further results
1 | CCCC1CCN(C(=O)/C=C/c2cnc3c(c2)CCC(=O)N3)CC1 [Example 8, 6-[(1E)-3-Oxo-3-(4-propylpiperidin-1-yl)prop-1-en-1-yl]-3,4-dihydro-1,8-naphthyridin-2(1H)-one] | 41 | 4 (≈ 12.2 µM) |  |  |  |  |  |  |  |  |  |  |  |  |  |  |  |  |  |  | 
2 | O=C1CCc2cc(/C=C/C(=O)N3CCC(Oc4ccccc4)C3)cnc2N1 (stereo not drawn) [Example 10, 6-[(1E)-3-Oxo-3-(3-phenoxypyrrolidin-1-yl)prop-1-en-1-yl]-3,4-dihydro-1,8-naphthyridin-2(1H)-one] | 120 | 4 (≈ 11 µM) |  |  |  |  |  |  |  |  |  |  |  |  |  |  |  |  |  |  | 
3 | CCCCCOC1CN(C(=O)/C=C/c2cnc3c(c2)CCC(=O)N3)C1 [Example 15, 6-{(1E)-3-Oxo-3-[3-(pentyloxy)azetidin-1-yl]prop-1-en-1-yl}-3,4-dihydro-1,8-naphthyridin-2(1H)-one] | 25 | 4 (≈ 11.6 µM) | 4 (≈ 11.6 µM) | 4 (≈ 11.6 µM) | 2 (≈ 5.82 µM) | 1 (≈ 2.91 µM) | 4 (≈ 11.6 µM) | 2 (≈ 5.82 µM) | 2 (≈ 5.82 µM) | 2 (≈ 5.82 µM) | 4 (≈ 11.6 µM) | 2 (≈ 5.82 µM) | 2 (≈ 5.82 µM) | 4 (≈ 11.6 µM) | 4 (≈ 11.6 µM) | 4 (≈ 11.6 µM) | 4 (≈ 11.6 µM) | 4 (≈ 11.6 µM) | 4 (≈ 11.6 µM) | 4 (≈ 11.6 µM) | MIC [20]: 4 µg/mL (≈ 11.6 µM); MIC [21]: 1 µg/mL (≈ 2.91 µM); in vivo antibacterial activity (bacterial burden in the thigh of infected mice) [22]: able to protect mice against thigh dissemination
4 | Oc1cc(Cl)ccc1Oc1ccc(Cl)cc1Cl [Triclosan] |  |  |  |  |  |  |  |  |  |  |  |  |  |  |  |  |  |  |  |  | inhibition of E. coli FabI (E. coli FabI): reversible, tight-binding inhibitor
5 | CN[C@H](CC(C)C)C(=O)N[C@H]1C(=O)N[C@@H](CC(N)=O)C(=O)N[C@H]2C(=O)N[C@H]3C(=O)N[C@H](C(=O)N[C@H](C(=O)O)c4cc(O)cc(O)c4-c4cc3ccc4O)[C@H](O)c3ccc(c(Cl)c3)Oc3cc2cc(c3O[C@@H]2O[C@H](CO)[C@@H](O)[C@H](O)[C@H]2O[C@H]2C[C@](C)(N)[C@H](O)[C@H](C)O2)Oc2ccc(cc2Cl)[C@H]1O [Vancomycin, reference compound] |  |  | 0.5 (≈ 0.345 µM) | 1 (≈ 0.69 µM) | 1 (≈ 0.69 µM) | 1 (≈ 0.69 µM) | 2 (≈ 1.38 µM) | 1 (≈ 0.69 µM) | 1 (≈ 0.69 µM) | 1 (≈ 0.69 µM) | 4 (≈ 2.76 µM) | 1 (≈ 0.69 µM) | 1 (≈ 0.69 µM) | 1 (≈ 0.69 µM) | 1 (≈ 0.69 µM) | 1 (≈ 0.69 µM) | 1 (≈ 0.69 µM) | 1 (≈ 0.69 µM) | 1 (≈ 0.69 µM) | 1 (≈ 0.69 µM) | MIC [20]: 1 µg/mL (≈ 0.69 µM); MIC [21]: 1 µg/mL (≈ 0.69 µM)
